# Test results reported in patent publication US6974671B1, “Methods for indentifying compounds that modulate gluconeogenesis through the binding of CREB to the PGC-1 promoter” (Salk Institute for Biological Studies, priority 2001, dated 2005).
# Assays:
# PGC-1 promoter = assay: Transient assay of HepG2 cells with PGC-1 luciferase reporter; type: cell-based, human
# From the text: (§1) Plasmids. Expression plasmids pZEO-ACREB^22 and pcDNA3-PGC-1^24 have been described previously. Liver specific A-CREB transgene was constructed by inserting A-CREB cDNA into a liver specific albumin promoter/enhancer plasmid^5. To construct luciferase expression plasmids −490PEPCKLuc and −355PEPCKLuc BamHI/BglII fragments of the PEPCK promoter region containing 490 or 355 bp of the mouse PEPCK 5′-flanking region, respectively, were cloned into the pGL3 basic luciferase reporter vector (Promega, St. Luis Obispo). PGC-1 reporter mPGCLuc was constructed by inserting a […] fragment of the mouse PGC-1 promoter containing 170 bp of the 5′-flanking region and 68 bp of Exon 1 into the pGL3 vector.
# (§2) Cell culture and transient transfection assays. Human hepatoma HepG2 cells were transfected using the Lipofectamine 2000 reagent (GIBCO BRL) according to manufacturers instructions (500 ng of indicator plasmid/well). Where indicated, expression plasmids encoding A-CREB (pZeo-ACREB)^22 or PGC-1 (pcDNA3-PGC-1)^24 were cotransfected (50 ng or 800 ng plasmid/well, respectively). Cotransfections were performed with a constant DNA amount by adding the empty pcDNA3 vector (Invitrogen). Cells were treated with Forskolin (10 μM) and/or Dexamethasone (100 nM) or insulin (10 nM) for 14 h. […]
# PEPCK promoter = assay: Transient assay of HepG2 cells with PEPCK luciferase reporter; type: cell-based, human; details: HepG2, PEPCK reporter plasmid, cAMP agonist
# From the text: as §1, §2
Compound,"effect on PGC-1 reporter activity (PGC-1 promoter; HepG2, insulin 10 nM)","induction of PGC-1 promoter activity (PGC-1 promoter; HepG2, PGC-1 luciferase reporter (-170 to +68), forskolin 10 μM)",stimulation of PEPCK promoter activity (PEPCK promoter)
insulin,blocked,–,–
"C=C[C@@]1(C)CC(=O)[C@]2(O)[C@@]3(C)[C@@H](O)CCC(C)(C)[C@@H]3[C@H](O)[C@H](OC(C)=O)[C@@]2(C)O1 [cAMP agonist, Forskolin]",–,3–4 fold,3–4 fold
